Laboratory results taken from patent EP0171342A1, “Substituted 2-(1-amino-akylidenyl)1,3-indane diones, process for their preparation and their therapeutical use” (priority 1984, dated 1986).
Values after ≈ are worked out from the molar mass of the structure shown. Read-outs that look alike come from different tables or passages of the source.

What was measured:
[1] = system: rat soumis à une surcharge hydrique; assay: Diuretic activity in rats given a water overload, oral; format: in vivo; settings: rat, water overload, oral
Outline: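 Oral dosing (5–80 mg/kg) to rats under water overload, or to rats and mice under saline overload. Urine volume and excreted sodium and potassium measured over 6 h, expressed as change versus control animals; Na/K ratio also derived.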

[2] = system: segments isolés d'iléon de cobaye; assay: Antihistamine activity: histamine-induced contraction of isolated guinea pig ileum; settings: 50 microg/ml, response induced by 0,5 microg/ml histamine
Text: L'activité antihistaminique a été appréciée in vitro par l'inhibition de la réponse contractile de segments isolés d'iléon de cobaye induite par 0,5 microg/ml d'histamine.

[3] = system: rat Wistar soumis à une surcharge saline; assay: Diuretic activity in selected Wistar rats given a saline overload (modified Wiebelhaus test); format: in vivo
Outline: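 Selected Wistar rats under saline overload (modified Wiebelhaus test) received compound at 20 mg/kg. Urine volume and sodium excretion were measured over 6 h, expressed as % increase, with Na/K ratio also assessed.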

[4] = system: segments d'iléon de cobaye isolés; assay: Anticholinergic activity: acetylcholine-induced contractions of isolated guinea pig ileum; settings: Cavia porcellus; contractions induced by 0,1 microg/ml acetylcholine; read-out: concentration qui inhibe ces contractions de 80%
Text: L'activité anticholinergique a été appréciée par la mesure des contractions induites par 0,1 microg/ml d'acétylcholine sur des segments d'iléon de cobaye isolés. Les COR3760, COR3789, COR3792, COR4003, COR4008, COR4010, COR4014 utilisés respectivement aux concentrations de 50, 25, 25, 50, 25, 10, 25 microg/ml inhibent ces contractions de 80%.

[5] = target: oreillettes droites de cobaye (Cavia porcellus, UniProt P47747); assay: Anti-H2 activity: histamine-induced chronotropic effect on unstimulated guinea pig right atria
[6] = system: souris; assay: Acute toxicity (mortality, LD50) in mice; format: in vivo; settings: mouse
[7] = system: poumon de cobaye isolé perfusé; assay: Bronchodilator activity: isolated perfused guinea pig lung contracted by methacholine; settings: flow of Tyrode solution, lung contracted by 0,05 microg/ml methacholine; read-out: concentration qui augmente ce débit de 50%
[8] = system: oedème induit par l'injection intraplantaire de carragénine chez le rat; assay: Anti-inflammatory activity: carrageenan paw oedema in rats; format: in vivo; settings: oral 1 h before carrageenan, measured 3 h after, dose 10b mg/kg [sic]
Protocol: L'activité antiinflammatoire a été déterminée chez le rat par la mesure de l'inhibition de l'oedème induit par l'injection intraplantaire de 0,1 ml d'une suspension à 1% de carragénine chez le rat. Les produits à tester sont administrés par voie orale lh avant l'injection de carragénine et la mesure est réalisée 3h après cette injection. Les COR3789, COR3792, COR4003, COR4008 et COR4010 administrés à 10b mg/kg entrainent respectivement 43, 42, 41, 38 et 39% d'inhibition. Administré à 200 mg/kg, le COR3773 entraine 53% d'inhibition. L'aspirine administrée dans les mêmes conditions à 150 mg/kg entraine 40% d'inhibition de l'oedème.

Sequence of oreillettes droites de cobaye (P47747 whole entry): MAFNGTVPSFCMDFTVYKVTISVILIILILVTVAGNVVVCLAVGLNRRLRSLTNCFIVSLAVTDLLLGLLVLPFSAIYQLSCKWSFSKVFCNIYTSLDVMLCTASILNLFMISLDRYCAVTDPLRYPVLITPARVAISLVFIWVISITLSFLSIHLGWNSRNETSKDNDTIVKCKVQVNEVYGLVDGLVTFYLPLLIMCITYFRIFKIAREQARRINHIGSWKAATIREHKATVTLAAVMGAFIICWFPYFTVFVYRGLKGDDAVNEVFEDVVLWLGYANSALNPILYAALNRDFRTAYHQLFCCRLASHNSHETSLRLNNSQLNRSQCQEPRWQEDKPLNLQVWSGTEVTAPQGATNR

For CCC(NC)=C1C(=O)c2ccccc2C1=O [COR4003, (Méthylamino-1 propylidényl)-2 indanedione-1,3], the “facteur multipliant l'excrétion sodique” value ([1]; 10 mg/kg) was 2,4, the response vs control in vivo at 20 mg/kg ([1]; 20 mg/kg, read-out: facteur multipliant l'excrétion urinaire du sodium) was 720% and the “inhibition de la réponse contractile” value [2] was “inhibe cette réponse”. It also gave a change in vivo at 20 mg/kg ([3]; 6 h, read-out: augmentation de l'excrétion urinaire volumétrique mesurée au bout de 6 heures) of 56%, a change in vivo at 20 mg/kg ([3]; read-out: augmentation de l'excrétion urinaire du sodium) of 56% and an IC80 [4] of 50 µg/mL (≈ 232 µM). For the same compound, the “effet chronotrope négatif intrinsèque” value ([5]; at the concentration inhibiting the histamine effect by 50 % (COR4003 100, COR4011 50 microg/ml)) was “ne présentant pas d'effet chronotrope négatif intrinsèque”, the IC50 ([5]; chronotropic effect induced by 5 microg/ml histamine, read-out: concentration qui inhibe de 50 % cet effet chronotrope (converted)) was 465 µM and the mortalité ([6]; intraperitoneal, 200 mg/kg) was “aucune mortalité”. The mortalité ([6]; oral, 300 mg/kg) was “aucune mortalité”, the EC50 [7] was 10 µg/mL (≈ 46.5 µM) and the “inhibition de l'oedème” value [8] was 41%.
